In one test the test system is Aspergillus niger. In words: Antimicrobial activity against Aspergillus niger. Format: functional, organism-based.
A further test deals with Bacillus subtilis. As to the kind of experiment: Antimicrobial activity against Bacillus subtilis ATCC 6633. Format: functional.
For a further test, the system named is Staphylococcus aureus. As to the kind of experiment: Antimicrobial activity against Staphylococcus aureus ATCC 6538. Format: functional.

Structures are written as SMILES. Converted amounts (≈) assume the structure as drawn. The source made the active and inactive calls. The calls are words filed in the database; no cut-off is given here.

On to `C[N+]1=CNC[C@]1(C)C[C@H](NC(=O)c1cc(Br)c[nH]1)C(=O)[O-]`, for which, in the test on Aspergillus niger, the result was Active.

On to `Cn1c(/C=C\CNC(=O)c2cc(Br)c[nH]2)cnc1N` [KERAMADINE], for which the MIC (in general, the least concentration at which growth counts as inhibited) against Bacillus subtilis came to 40 µg/mL (≈ 123 µM); against Staphylococcus aureus it was 35 µg/mL (≈ 108 µM).

On to `C[C@]1(C[C@H](NC(=O)c2cc(Br)c[nH]2)C(=O)O)CNC=N1`, for which the outcome in the test on Bacillus subtilis and in the test with Staphylococcus aureus was inactive. The result in the test on Aspergillus niger was Active.

On to `C[N+]1=CNC[C@]1(C)C[C@@H](NC(=O)c1cc(Br)c[nH]1)C(=O)[O-]`, for which the result in the test on Aspergillus niger was Active.

In the case of `O=C(O)C[C@H]1CNC(=O)c2cc(Br)c(Br)n21` [LONGAMIDE B], the figures for the minimal inhibitory concentration (MIC) in the test with Bacillus subtilis and against Staphylococcus aureus were 45 µg/mL (≈ 128 µM) and 55 µg/mL (≈ 156 µM), respectively.

In the case of `C[C@]1(C[C@@H](NC(=O)c2cc(Br)c[nH]2)C(=O)O)CNC=N1`, the outcome with Bacillus subtilis and in the test on Staphylococcus aureus was inactive. In addition, the outcome with Aspergillus niger was Active.

(Values after ChEMBL document CHEMBL1159197, “Novel bromopyrrole alkaloids from the sponge Agelas dispar” (1998).)
